Patent publication US5627263A, “Integrin-binding peptides” (La Jolla Cancer Research Foundation, priority 1995, dated 1997)
Where a SMILES comes first, the peptide text is derived from it. Bridges are numbered along the chain shown (N, C = ends).

Assays:
α5 β1 integrin [1] = target: α5 β1 integrin (Homo sapiens, UniProt P05556+P08648); assay: 125I-fibronectin binding assay, competing peptides; settings: microtiter wells coated with α5 β1, 1 hr; FIG. 1; read-out: IC50, inhibition of 125I-fibronectin binding to α5 β1
Method: The α5 β1 integrin was bound to α5 specific antibody-coated wells by incubating 300 μl of a placental extract per well in TBS buffer containing 0.1M octylglucoside, 1 mM CaCl2, 1 mM MnCl2 and proteinase inhibitors overnight at 4° C., as described by Pytela et al. (1987), supra. Alternatively, the α5β1 integrin was directly coated on plastic as described above. The wells were extensively washed with TBS containing 0.1% NP-40. ^125 I-labeled fibronectin (100,000 cpm per well) was incubated in the presence of competing peptides for 1 hr at 25° C. in 100 μl volume of TBS containing 0.1% NP-40 and 1 mM MnCl2, as described by Koivunen et al. (1993), supra. After repeated washing, the bound radioactivity was quantitated with a gamma counter.
Initially, CRRETAWAC [SEQ ID NO:6] was examined for its ability to inhibit binding of fibronectin, which is the natural ligand for α5 β1. Briefly, ^125 I-fibronectin was incubated for 1 hr in the presence of competing peptides in microtiter wells coated with α5 β1. Following incubation, the wells were washed and bound radioactivity was determined with a gamma counter.

α5 β1 integrin [2] = target: T1, α5 β1 integrin (UniProt G3HZ55+P08648); assay: Attachment of B2/α27 cells to immobilized GACRRETAWACGA peptide and its inhibition; type: cell-based, human; settings: EDTA 10 mM; FIG. 8
T1 construct: expressed in transfected cells; host or cells: CHO B2/α27
From the text: Cell lines expressing fibronectin-binding integrins were used to determine peptide activities against these integrins in the cell attachment assay described by Ruoslahti et al., Meth. Enzymol. 144:803-831 (1982), which is incorporated herein by reference. Human plasma fibronectin was iodinated as described by Morla and Ruoslahti, J. Cell Biol. 118:421-429 (1992), which is incorporated herein by reference. Vitronectin was obtained from Telios Pharmaceuticals (San Diego, Calif.). […] Peptide was coated on plastic by incubating at 37° C. for 2 hr in phosphate buffered saline containing 0.25% glutaraldehyde to crosslink the peptide. Free binding sites on the plastic were blocked using BSA. Approximately 1×10^5 cells per well were allowed to attach for 1 hr in the presence or absence of competing peptides. Bound cells were quantitated by staining with 0.1% amido black.
In addition to the inhibition of cell attachment to natural ligands, attachment and inhibition assays were performed using the […] [SEQ ID NO:3] peptide as substrate. The microtiter well were coated with […] [SEQ ID NO:3] using glutaraldehyde as described above. […] Bound cells were quantitated by staining with 0.1% amido black.

CC(C)C[C@H](NC(=O)[C@@H]1CSSC[C@H](NC(=O)[C@H](C)NC(=O)CN)C(=O)N[C@@H](CCCNC(=N)N)C(=O)NCC(=O)N[C@@H](CC(=O)O)C(=O)N1)C(=O)NCC(=O)N[C@@H](C)C(=O)O [CRGDC, GA*CRGDC*LGA] (H-GACRGDCLGA-OH; disulfide 3-7)
IC50 (α5 β1 integrin [1]): ~8 nM

C[C@H](NC(=O)CNC(=O)[C@@H]1CSSC[C@H](NC(=O)[C@H](C)NC(=O)CN)C(=O)N[C@@H](CCCNC(=N)N)C(=O)N[C@@H](CCCNC(=N)N)C(=O)N[C@@H](CCC(=O)O)C(=O)N[C@@H]([C@@H](C)O)C(=O)N[C@@H](C)C(=O)N[C@@H](Cc2c[nH]c3ccccc23)C(=O)N[C@@H](C)C(=O)N1)C(=O)O [CRRETAWAC, GA*CRRETAWAC*GA] (H-GACRRETAWACGA-OH; disulfide 3-11)
IC50 (α5 β1 integrin [1]): ~8 nM

O=C(O)CN(CCN(CC(=O)O)CC(=O)O)CC(=O)O [EDTA]
Inhibition of cell attachment to immobilized RRETAWA peptide by EDTA (α5 β1 integrin [2]): inhibited
